Entries after “also recorded” stand apart in the source; their conditions may differ. Where no end group is shown, it is not given here. [ ]: non-standard residue; d: D form.
How the values were obtained:
[1] = test system: RyR channels of cardiac SR vesicles; assay: Ca2+ release from cardiac SR vesicles; type: biochemical, sheep; details: for Ca2+-activated Ca2+ release / caffeine-activated Ca2+ release: 20 μM Ca2+ or 2 mM caffeine plus peptide; for initial rate of Ca2+ release, peptide alone: 30 μM and 50 μM peptide, no additional activating factors; for rate of Ca2+ release in the absence of activating Ca2+ or caffeine: high concentrations of >30 μM peptide
Experimental: Extravesicular [Ca^2+] was monitored at 710 nm using either a Cary 50 or Cary 100 spectrophotometer. […] Vesicles were loaded with Ca^2+ by 4 additions of 3 μl aliquots of 5 mM CaCl2, to a final concentration of 7.5 μM Ca^2+. Thapsigargin (200 nM) was then added to block the SR Ca^2+ ATPase. Finally the peptides were added either alone, or with 20 μM Ca^2+ or 2 mM caffeine. The rate of Ca^2+ release in the presence of thapsigargin was measured just before addition of the activating agents and initial rates of Ca^2+ release were measured immediately after addition of the activating agents. The specific blocker of RyR activity, […] ruthenium red, was then added to confirm that Ca^2+ release was through RyR channels. The Ca^+ ionophore A23187 (3 μg/ml) was added at the end of the experiment to determine the amount of Ca^2+ remaining in the SR vesicles. When Ca^2+ release was complete, the Ca^2+ transient following addition of the ionophore, was indicative of the fraction of vesicles containing Ca^2+ that could not be released through RyR channel (presumably vesicles from longitudinal SR that lack RyR channels). […] Experiments were repeated on vesicles isolated from 3 different sheep heart preparations.

cardiac RyR2 channel = assay: Single channel activity of cardiac RyR2 channels in lipid bilayers; type: biochemical, sheep; details: for effect on cardiac RyR2 channel activity: cis 10^−7M Ca2+
Experimental: SR vesicles were isolated from sheep heart as described by Layer et al. (1995, J. Membr. Biol. 147:7-22).
Experiments were carried out at 20° C. to 25° C., essentially according to Ahern et al. (1994, FEBS Lett. 352:369-374) and Layer et al. (1995, J. Membr. Biol. 147:7-22). Bilayers were formed from phosphatidylethanolamine, phosphatidylserine and phosphatidylcholine (5:3:2 w/w/w) (Avanti Polar Lipids, Alabaster, Ala.) across an aperture with a diameter of […] in the wall of a 1.0 ml Delrin cup (Cadillac Plastics, Australia). Terminal cisternae (TC) vesicles (final concentration, 10 μg/ml) and drugs were added to the cytoplasmic (i.e. cis) chamber. The bilayer potential was controlled, and single channel activity recorded, using an Axopatch 200A amplifier (Axon Instruments, Foster City, Calif.). For experimental purposes, the cis chamber was held at ground and the voltage of the lumen (i.e. trans) chamber controlled. Bilayer potential is expressed in the conventional way as Vcis−Vtrans, (i.e. Vcytoplasm−Vlumen).
Bilayers were formed as described above and vesicles were incorporated into the bilayer using a cis solution containing 230 mM Cs methanesulphonate (MS), 20 mM CsCl, 1 mM CaCl2 and 10 mM N-tris[hydroxymethyl]methyl-2-aminoethanesulfonic acid (TES, pH 7.4 with CsOH), and a trans solution containing 30 mM Cs MS, 20 mM CsCl, 1 mM CaCl2 and 10 mM TES (pH7.4).
To prevent incorporation of multiple channels into the bilayer, the cis solution was replaced by perfusion of the cis chamber when channel activity was observed. The cis perfusion solution was identical to the initial cis solution, except that the [Ca^2+] was 3×10^−7M, buffered using 1 mM BAPTA. CsMS (200 mM) was added to the trans chamber following channel incorporation to produce symmetrical solutions.
Bilayer potential was changed every 30 s, over 2 min following each addition of peptide to the cis chamber. Control activity was recorded for 2 min after addition of 200 mM CsMS to the trans chamber. Activity was then recorded for 2 min after cis addition of each aliquot of peptide (six different peptide concentrations were examined in each channel). Peptides were perfused out of the cis chamber, and the recovery recorded. Channels were finally exposed to 30 μM ruthenium red.
Currents were filtered at 1 kHz (8-pole low pass Bessel, −3 dB) and digitized at 5 kHz. Analysis of single channel records (using Channel 2, developed by P W Gage and M Smith) yielded channel open probability (Po), frequency of events (Fo), open times, closed times and mean open or closed times (To or Tc) as well as mean current (I′). The event discriminator was set above the baseline noise at ˜20% of the maximum current, rather than the usual 50%, and so openings to both sub conductance and maximum conductance levels were included in the analysis. Channel activity was analyzed over two 30 s periods of continuous activity at +40 mV and two 30 s periods of continuous activity at −40 mV.
The Ca^2+ concentration in the cis solution was either buffered at 100 nM or was adjusted to 100 μM by adding an CaCl2 to the cis solution in the absence of BAPTA.

cardiac RyR2 channels = cardiac RyR2 channels (Homo sapiens, UniProt Q92736); details: cited from earlier work
cardiac RyR2 channels, sequence (Q92736 whole entry): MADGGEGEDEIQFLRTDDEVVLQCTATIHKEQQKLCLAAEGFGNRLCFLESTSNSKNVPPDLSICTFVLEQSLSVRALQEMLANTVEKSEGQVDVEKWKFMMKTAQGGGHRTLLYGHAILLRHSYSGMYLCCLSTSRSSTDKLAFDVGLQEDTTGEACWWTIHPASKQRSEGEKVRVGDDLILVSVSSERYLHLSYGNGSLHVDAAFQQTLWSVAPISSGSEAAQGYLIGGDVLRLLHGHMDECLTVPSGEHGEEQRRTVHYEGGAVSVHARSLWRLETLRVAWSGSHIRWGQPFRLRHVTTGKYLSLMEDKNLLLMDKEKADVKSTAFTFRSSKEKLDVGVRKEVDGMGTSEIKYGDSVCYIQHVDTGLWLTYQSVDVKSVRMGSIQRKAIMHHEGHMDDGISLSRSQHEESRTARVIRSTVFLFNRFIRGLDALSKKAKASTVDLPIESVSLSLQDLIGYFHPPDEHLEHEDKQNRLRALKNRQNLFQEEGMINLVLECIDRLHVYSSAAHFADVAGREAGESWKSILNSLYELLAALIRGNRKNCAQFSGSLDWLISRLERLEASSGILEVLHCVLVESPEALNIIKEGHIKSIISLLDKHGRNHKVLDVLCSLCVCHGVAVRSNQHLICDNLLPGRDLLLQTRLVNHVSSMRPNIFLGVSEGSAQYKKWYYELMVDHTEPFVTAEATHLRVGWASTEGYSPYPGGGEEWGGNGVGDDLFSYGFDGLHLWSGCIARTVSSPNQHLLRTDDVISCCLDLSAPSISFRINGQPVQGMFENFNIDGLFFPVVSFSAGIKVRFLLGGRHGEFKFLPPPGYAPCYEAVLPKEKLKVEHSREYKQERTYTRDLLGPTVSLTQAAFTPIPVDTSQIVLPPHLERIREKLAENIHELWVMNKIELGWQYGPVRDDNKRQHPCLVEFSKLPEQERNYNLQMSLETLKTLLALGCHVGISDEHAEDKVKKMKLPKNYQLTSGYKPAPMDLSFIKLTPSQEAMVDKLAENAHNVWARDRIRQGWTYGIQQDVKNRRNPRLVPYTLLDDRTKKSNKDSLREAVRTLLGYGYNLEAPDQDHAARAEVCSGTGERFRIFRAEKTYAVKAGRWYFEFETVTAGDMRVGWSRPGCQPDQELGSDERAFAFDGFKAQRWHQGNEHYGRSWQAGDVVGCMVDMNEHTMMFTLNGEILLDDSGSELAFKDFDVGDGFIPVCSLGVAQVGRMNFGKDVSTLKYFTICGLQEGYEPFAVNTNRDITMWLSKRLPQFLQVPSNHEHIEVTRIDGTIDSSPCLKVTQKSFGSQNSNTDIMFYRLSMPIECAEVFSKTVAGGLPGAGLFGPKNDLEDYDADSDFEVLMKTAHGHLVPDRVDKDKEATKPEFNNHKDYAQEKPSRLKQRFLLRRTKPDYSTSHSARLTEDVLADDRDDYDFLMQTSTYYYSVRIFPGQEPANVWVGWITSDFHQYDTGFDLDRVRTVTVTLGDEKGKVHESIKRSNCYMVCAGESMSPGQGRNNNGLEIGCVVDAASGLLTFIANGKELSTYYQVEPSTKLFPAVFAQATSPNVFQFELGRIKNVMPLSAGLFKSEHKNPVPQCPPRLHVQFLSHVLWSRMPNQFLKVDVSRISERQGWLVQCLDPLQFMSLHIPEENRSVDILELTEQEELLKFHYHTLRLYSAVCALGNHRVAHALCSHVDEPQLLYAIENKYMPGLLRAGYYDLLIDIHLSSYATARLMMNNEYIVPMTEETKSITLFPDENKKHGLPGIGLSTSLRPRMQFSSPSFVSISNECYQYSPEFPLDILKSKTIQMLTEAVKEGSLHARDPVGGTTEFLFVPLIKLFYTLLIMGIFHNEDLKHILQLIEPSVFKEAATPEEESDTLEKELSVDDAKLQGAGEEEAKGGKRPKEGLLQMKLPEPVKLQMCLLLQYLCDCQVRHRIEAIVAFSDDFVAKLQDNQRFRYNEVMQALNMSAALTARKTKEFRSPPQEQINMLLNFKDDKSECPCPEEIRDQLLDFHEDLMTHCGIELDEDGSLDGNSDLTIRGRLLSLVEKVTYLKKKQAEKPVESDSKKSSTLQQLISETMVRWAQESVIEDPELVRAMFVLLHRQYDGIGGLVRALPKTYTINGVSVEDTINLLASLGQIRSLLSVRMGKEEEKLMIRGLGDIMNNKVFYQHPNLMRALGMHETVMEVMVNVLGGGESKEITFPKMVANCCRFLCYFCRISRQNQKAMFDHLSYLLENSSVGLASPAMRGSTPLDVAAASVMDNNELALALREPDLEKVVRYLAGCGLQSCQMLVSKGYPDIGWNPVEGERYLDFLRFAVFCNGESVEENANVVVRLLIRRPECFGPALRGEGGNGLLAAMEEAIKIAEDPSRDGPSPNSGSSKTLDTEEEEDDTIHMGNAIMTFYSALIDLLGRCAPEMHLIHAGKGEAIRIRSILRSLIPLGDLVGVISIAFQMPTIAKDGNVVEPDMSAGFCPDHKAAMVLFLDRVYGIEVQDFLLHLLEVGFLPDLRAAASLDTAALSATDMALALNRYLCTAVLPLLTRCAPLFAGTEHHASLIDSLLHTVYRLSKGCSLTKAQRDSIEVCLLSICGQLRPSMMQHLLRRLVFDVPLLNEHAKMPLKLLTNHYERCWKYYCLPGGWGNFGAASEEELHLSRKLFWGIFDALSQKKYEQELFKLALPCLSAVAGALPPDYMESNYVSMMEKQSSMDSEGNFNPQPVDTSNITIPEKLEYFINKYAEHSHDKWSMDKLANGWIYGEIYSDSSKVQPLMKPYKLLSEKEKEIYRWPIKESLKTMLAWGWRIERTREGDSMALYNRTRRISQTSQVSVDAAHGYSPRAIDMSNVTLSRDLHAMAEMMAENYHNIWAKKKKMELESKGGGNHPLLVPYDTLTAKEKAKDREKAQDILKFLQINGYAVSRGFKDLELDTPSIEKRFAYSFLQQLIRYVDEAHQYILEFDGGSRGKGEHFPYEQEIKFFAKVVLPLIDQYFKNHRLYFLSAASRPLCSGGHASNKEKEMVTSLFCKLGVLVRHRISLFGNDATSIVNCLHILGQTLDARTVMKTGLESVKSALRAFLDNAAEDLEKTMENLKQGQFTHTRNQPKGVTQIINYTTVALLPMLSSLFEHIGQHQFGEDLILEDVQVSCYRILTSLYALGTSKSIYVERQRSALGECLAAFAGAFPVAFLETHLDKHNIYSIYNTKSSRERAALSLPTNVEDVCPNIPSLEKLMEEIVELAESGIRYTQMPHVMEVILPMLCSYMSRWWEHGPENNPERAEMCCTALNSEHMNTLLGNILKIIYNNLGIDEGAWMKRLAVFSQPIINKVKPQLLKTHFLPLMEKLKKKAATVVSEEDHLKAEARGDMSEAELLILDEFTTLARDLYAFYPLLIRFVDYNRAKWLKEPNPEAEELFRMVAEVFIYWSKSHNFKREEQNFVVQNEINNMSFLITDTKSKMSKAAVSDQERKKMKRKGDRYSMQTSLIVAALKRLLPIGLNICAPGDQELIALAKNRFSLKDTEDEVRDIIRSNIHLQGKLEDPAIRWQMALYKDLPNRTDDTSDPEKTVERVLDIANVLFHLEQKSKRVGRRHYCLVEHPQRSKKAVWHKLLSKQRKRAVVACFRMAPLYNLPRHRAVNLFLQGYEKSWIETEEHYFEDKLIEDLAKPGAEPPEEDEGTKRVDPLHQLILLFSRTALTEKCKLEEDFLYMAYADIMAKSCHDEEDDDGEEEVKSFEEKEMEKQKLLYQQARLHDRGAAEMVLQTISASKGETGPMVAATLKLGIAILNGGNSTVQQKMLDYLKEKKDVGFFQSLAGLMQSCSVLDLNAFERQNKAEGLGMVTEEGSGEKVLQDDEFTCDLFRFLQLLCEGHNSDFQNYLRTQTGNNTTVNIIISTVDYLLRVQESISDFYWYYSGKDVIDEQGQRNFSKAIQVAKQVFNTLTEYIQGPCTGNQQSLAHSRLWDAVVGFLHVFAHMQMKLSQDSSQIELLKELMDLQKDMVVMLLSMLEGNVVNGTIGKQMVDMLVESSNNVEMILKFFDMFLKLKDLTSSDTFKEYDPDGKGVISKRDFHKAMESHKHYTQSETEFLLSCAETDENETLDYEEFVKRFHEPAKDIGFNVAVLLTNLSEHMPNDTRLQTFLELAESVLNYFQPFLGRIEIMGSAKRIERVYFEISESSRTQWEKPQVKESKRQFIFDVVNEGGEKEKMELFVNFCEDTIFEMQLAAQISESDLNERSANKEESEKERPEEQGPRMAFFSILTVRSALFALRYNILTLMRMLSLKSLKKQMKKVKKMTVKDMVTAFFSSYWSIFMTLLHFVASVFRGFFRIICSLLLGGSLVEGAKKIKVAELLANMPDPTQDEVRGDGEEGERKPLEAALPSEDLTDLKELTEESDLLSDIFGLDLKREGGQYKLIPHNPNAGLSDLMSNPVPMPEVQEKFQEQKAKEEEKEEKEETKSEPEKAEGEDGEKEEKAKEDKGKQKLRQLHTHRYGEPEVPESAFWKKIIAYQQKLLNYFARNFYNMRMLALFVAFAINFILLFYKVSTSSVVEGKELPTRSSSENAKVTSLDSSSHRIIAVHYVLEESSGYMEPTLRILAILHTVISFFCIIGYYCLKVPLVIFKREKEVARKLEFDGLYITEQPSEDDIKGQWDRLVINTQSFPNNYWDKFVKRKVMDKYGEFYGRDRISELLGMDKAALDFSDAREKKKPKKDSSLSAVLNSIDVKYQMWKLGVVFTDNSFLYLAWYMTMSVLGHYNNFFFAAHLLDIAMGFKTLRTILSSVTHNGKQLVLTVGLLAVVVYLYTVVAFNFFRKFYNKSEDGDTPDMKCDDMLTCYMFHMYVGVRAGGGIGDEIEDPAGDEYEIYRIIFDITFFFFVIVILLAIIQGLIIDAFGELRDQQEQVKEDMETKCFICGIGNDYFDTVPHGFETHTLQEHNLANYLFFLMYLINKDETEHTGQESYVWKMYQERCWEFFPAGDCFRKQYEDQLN

RyR2 = RyR2 (Homo sapiens, UniProt Q92736); details: cited from earlier work
RyR2, sequence (Q92736 whole entry, species assumed): as the sequence (Q92736 whole entry) above

cardiac SR = cardiac SR (Homo sapiens, UniProt Q92736); details: cited from earlier work
cardiac SR, sequence (Q92736 whole entry): as above

[2] = target: cardiac ryanodine receptor (RyR2) calcium channel from sheep heart SR vesicles (sheep, UniProt A0ACI6Q5I6 1-4956); assay: cell-based or functional assay

In the case of “TSAQKAKAEERKRRKMARDGL (TSAQKAKAEERKRRKMA[dR]GL) [SEQ ID NO: 10]”, the “Ca2+-activated Ca2+ release / caffeine-activated Ca2+ release” value [1] is reported as “also enhanced”, the “initial rate of Ca2+ release, peptide alone” value (“initial rate … peptide alone” for short) [1] is reported as “small increase” and the “rate of Ca2+ release in the absence of activating Ca2+ or caffeine” value [1] is reported as “marginally enhanced”.

For `N.N.N.N.N.N.N.N.N.N.N.N.N.N.[Cl-].[Cl-].[Cl-].[Cl-].[Cl-].[Cl-].[O-2].[O-2].[Ru+3].[Ru+3].[Ru+4]` [ruthenium red, reference compound], the “effect on Ca2+ release” value ([1]; added after activating agents) was “terminated” and the “effect on RyR channel” value (cardiac RyR2 channel; 30 μM, end of experiment) was “block the channel”.

In the case of TSAQKAKAEERKRRKMARGL [SEQ ID NO: 8], the “initial rate … peptide alone” value [1] is reported as “small increase”.

In the case of “TSAQKAKAEERKRRKMSRDGL (TSAQKAKAEERKRRKMS[dR]GL) [SEQ ID NO: 9]”, the “Ca2+-activated Ca2+ release / caffeine-activated Ca2+ release” value [1] is reported as “also enhanced”, the “initial rate … peptide alone” value [1] is reported as “small increase” and the “rate of Ca2+ release in the absence of activating Ca2+ or caffeine” value [1] is reported as “marginally enhanced”. The “channel activity (relative mean current)” value (cardiac RyR2 channel; 100 nM cis Ca2+) was “clearly enhanced”, the channel activity (cardiac RyR2 channel; 100 nM cis Ca2+, 10 nM peptide) was “significant increase in activity” and the “relative mean current at higher peptide concentrations” value (cardiac RyR2 channel; 100 nM cis Ca2+, 1 and 10 μM peptide, +40 mV) was “fall”. The “peptide concentration at which depression was seen” value (cardiac RyR2 channel; 100 nM cis Ca2+, +40 mV) was over 100 nM, the “increase in relative mean current” value (cardiac RyR2 channel; 100 nM cis Ca2+, both positive and negative potentials) was 10-20 fold and the “channel activity (relative mean current)” value (cardiac RyR2 channel; 100 μM cis Ca2+) was “failed to activate channels; also recorded: clearly depressed”. For the same molecule, the “peptide concentration of maximum effect (depression)” value (cardiac RyR2 channel; 100 μM cis Ca2+) was 100 nM, the “voltage dependence of reduction in channel activity” value (cardiac RyR2 channel; 100 μM cis Ca2+) was “greater at +40 mV than −40 mV; also recorded: significantly greater at +40 mV” and the frequency of events (cardiac RyR2 channel; +40 mV and −40 mV) was “corresponding increase”. For the same molecule, the “effect at high peptide concentrations” value (cardiac RyR2 channel; +40 mV, voltage- and Ca2+-dependent) was “blocked the channel pore” and the “peptide concentrations enhancing cardiac RyR activity in lipid bilayer” value (cardiac RyR2 channel; low concentrations) was 1 to 10 nM.

With “GLPDKTEEEKSVMAKKLEQK [peptide NB, non-specific peptide; the N-terminal portion of the B segment of the II-III loop, reference compound]” the channel activity (cardiac RyR2 channel; 1 μM or 10 μM cis peptide, +40 mV or −40 mV) was “no modified channel activity”.

For “TSAQKAKAEERKRRKMSRGL [SEQ ID NO: 2, 20-mer peptide (Thr671 to Leu690) of the II-III cytoplasmic loop of human skeletal muscle DHPR]”, the “enhancement of [3H]ryanodine binding to cardiac RyR2 channels” value (cardiac RyR2 channels) is listed as “not to induce Ca^2+ release from cardiac SR, or to enhance [^3H]ryanodine binding”, the “initial rate … peptide alone” value [1] is listed as “small increase” and the “binding to RyR2” value (RyR2) is listed as “binds”. The “induction of Ca2+ release from cardiac SR” value (cardiac SR) was “not to induce”, the “bilayer samples with similar activation and inhibition” value (cardiac RyR2 channel) was 8 out of 8 and the “lowest peptide concentration at which activation of cardiac RyR2 was observed” value (cardiac RyR2 channel) was 1 nM. The “peptide concentration above which channel opening began to decline” value (cardiac RyR2 channel; +40 mV) was “above 100 nM”, the frequency of opening (cardiac RyR2 channel; +40 mV and −40 mV, after peptide addition to cis chamber) was “higher frequency of opening” and the normalized mean current (cardiac RyR2 channel; +40 mV, 10 nM peptide) was “doubled”. For the same molecule, the channel activity (cardiac RyR2 channel; +40 mV, 65 nM peptide) was “increased; also recorded: mostly in the open configuration”, the channel openings (cardiac RyR2 channel; +40 mV, 10 μM peptide) was “only a few brief channel openings” and the channel configuration (cardiac RyR2 channel; +40 mV, 32.5 μM peptide) was “mostly in the closed configuration”. The “normalized mean current at higher peptide concentrations” value (cardiac RyR2 channel; +40 mV, between about 10 μM and 50 μM peptide) was “fell dramatically”, the “effect on cardiac RyR2 channel activity” value (cardiac RyR2 channel; +40 mV) was “increases and then decreases the activity” and the “effect on cardiac RyR2 channel activity” value (cardiac RyR2 channel; +40 mV, listed as 20-mer peptide) was “strong inhibition”. The “duration of channel openings” value (cardiac RyR2 channel; −40 mV, 10^−7M cis Ca, versus absence of peptide) was “prolonged channel openings”, the “effect on cardiac RyR2 channel activity” value (cardiac RyR2 channel; −40 mV) was “increases the activity” and the “effect on cardiac RyR2 channel activity” value (cardiac RyR2 channel; −40 mV, listed as 20-mer peptide) was “significant activation”. The “channel open probability (Po)” value (cardiac RyR2 channel; −40 mV, particularly at 65 nM peptide) was “high open probability”, the RyR2 channel activity (cardiac RyR2 channel; −40 mV, peptide increased to 6.5 μM) was “fell slightly” and the channel openings (cardiac RyR2 channel; −40 mV, within 10 s of adding 65 nM peptide) was “channel openings increased”.

For `Cn1c(=O)c2c(ncn2C)n(C)c1=O` [caffeine, reference compound], the “initial rate of Ca2+ release” value ([1]; 2 mM caffeine, no peptide) was 10 μmoles of Ca^2+ per mg of SR protein per min.

For “TRKSRLARGQKAKAKSEMRE [Peptide A1S, reference compound]”, the “bilayers in which channel activity was reduced” value (cardiac RyR2 channel; 1 μM or 10 μM cis peptide) was 2 out of 2 and the “cardiac RyR2 channel activity” value (cardiac RyR2 channel; 1 μM or 10 μM cis peptide) was “reduced cardiac RyR2 channel activity”.

For TSAQKAKAEERKRRKMS[dR]GL [SEQ ID NO: 9 peptide (20-mer of SEQ ID NO: 2 with Arg688 replaced by the D isomer of arginine)], the “mean closed time at +40 mV (decrease)” value [2] was 80 fold, the “mean closed time at -40 mV (decrease)” value [2] was 170 fold and the “mean open time at both potentials (increase)” value [2] was 8 fold. For the same molecule, the “open probability at +40 mV (increase)” value [2] was about 10 fold and the “open probability at -40 mV (increase)” value [2] was about 50 fold.

For TSAQKAKAEERKRRKMSRGL [20-mer peptide of the II-III cytoplasmic loop of skeletal DHPR alpha-1 subunit (Thr671 to Leu690)], the “mean current (I'p/I'c) at 10 nM peptide, -40 mV or +40 mV” value [2] was about 2 fold and the “mean current at -40 mV (increase in 50 µM peptide)” value [2] was 4 fold.
